The source of these data is US20240025907A1, “QUINAZOLINE PAN-KRas INHIBITORS” (Mirati Therapeutics, Inc., priority 2022, published 2024).

Holding throughout (format): cell-based
Assay [1] concerns KRas-mediated Phosphorylation of ERK in AsPC-1 cells. As to the kind of experiment: Cisbio HTRF pERK assay, AsPC-1 cells. The conditions noted are these: for IC50: 3 hrs compound, read-out: Inhibition (HTRF IC50 nM) of KRas-mediated Phosphorylation of ERK, AsPC-1. (In general: TR-FRET usually uses a lanthanide donor and a delayed reading to cut background.)
Assay [2] relates to KRas-mediated Phosphorylation of ERK in H727 cells. The experiment in a line: Cisbio HTRF pERK assay, H727 cells. The following applies: for IC50: 3 hrs compound, read-out: Inhibition (HTRF IC50 nM) of KRas-mediated Phosphorylation of ERK, H727.
For assay [3], the system named is KRas-mediated Phosphorylation of ERK in HCT116 cells. As to the kind of experiment: Cisbio HTRF pERK assay, HCT116 cells. The conditions noted are these: for IC50: HCT116 cells, 3 hrs compound, read-out: Inhibition (HTRF IC50 nM) of KRas-mediated Phosphorylation of ERK, HCT116.
Assay [4] has as its system KRas-mediated Phosphorylation of ERK in A549 cells. As to the kind of experiment: Cisbio HTRF pERK assay, A549 cells. The conditions noted are these: for IC50: A549 cells, 3 hrs compound, read-out: Inhibition (HTRF IC50 nM) of KRas-mediated Phosphorylation of ERK, A549.
For assay [5], the system named is KRas-mediated Phosphorylation of ERK in H460 cells. The experiment in a line: Cisbio HTRF pERK assay, H460 cells. The conditions noted are these: for IC50: H460 cells, 3 hrs compound, read-out: Inhibition (HTRF IC50 nM) of KRas-mediated Phosphorylation of ERK, H460.
Assay [6] relates to KRas-mediated Phosphorylation of ERK in H358 cells. The experiment in a line: Cisbio HTRF pERK assay, H358 cells. The following applies: for IC50: H358 cells, 3 hrs compound, read-out: Inhibition (HTRF IC50 nM) of KRas-mediated Phosphorylation of ERK, H358.
Assay [7] relates to KRas-mediated Phosphorylation of ERK in PSN1 cells. The experiment in a line: Cisbio HTRF pERK assay, PSN1 cells. The following applies: 3 hour compound, read-out: Inhibition (HTRF IC50 nM) of KRas-mediated Phosphorylation of ERK, PSN1. Here is the method:
Inhibition of KRas Phosphorylation of ERK (HTRF) by Exemplary Compounds of Formula (I) • Cisbio HTRF Advanced pERK Assay Catalog #64AERPEH • Cell: MKN1, PSN1 • Procedure: • Day 1: Seed 6,000 cells/well −25 μl/well in 384-well white solid bottom plate; RPM1_10% FBS.

Where two headings read alike, the source gives them in different places.

What is called IC50 is the concentration needed to halve the response being measured. What is called inhibition is how much of the control response was suppressed. A lower inhibition goes with little suppression.

Regarding `CN(C)C(=O)n1cc2c(n1)CCCN(c1nc(OC[C@@]34CCCN3C[C@H](F)C4)nc3c(F)c(-c4ccc(F)c5sc(N)c(C#N)c45)c(Cl)cc13)C2` (atropisomer, axis not shown; (aS)) [Example 186, 5-((S)-7-(2-amino-3-cyano-7-fluorobenzo[b]thiophen-4-yl)-6-chloro-8-fluoro-2-(((2R,7aS)-2-fluorotetrahydro-1H-pyrrolizin-7a(5H)-yl)methoxy)quinazolin-4-yl)-N,N-dimethyl-5,6,7,8-tetrahydropyrazolo[4,3-c]azepine-2(4H)-carboxamide], the IC50 in assay [1] amounted to 162 nM; in assay [2], 202 nM; in assay [3] it was 670 nM; in assay [4], 382 nM; in assay [5] it was 341 nM; in assay [6], 98 nM. Also, the IC50 in assay [7] is more than 10000 nM.
Take `N#Cc1c(N)sc2c(F)ccc(-c3c(Cl)cc4c(N5CCCCC(=O)C5)nc(OC[C@@]56CCCN5C[C@H](F)C6)nc4c3F)c12` [Example 191, 2-amino-4-(6-chloro-8-fluoro-2-(((2R,7aS)-2-fluorotetrahydro-1H-pyrrolizin-7a(5H)-yl)methoxy)-4-(3-oxoazepan-1-yl)quinazolin-7-yl)-7-fluorobenzo[b]thiophene-3-carbonitrile]: the IC50 in assay [1] (Homo sapiens, ASPC1, 3 h) is 8 nM; in assay [2] (Homo sapiens, NCI-H727, 3 h), 12 nM; in assay [3] (Homo sapiens, HCT-116, 3 h), 11 nM; in assay [4] (Homo sapiens, A549, 3 h), 11 nM; in assay [5] (Homo sapiens, NCI-H460, 3 h), 10 nM; in assay [6] (Homo sapiens, NCI-H358, 3 h) it was 2 nM. Moreover, the half-maximal inhibitory concentration (IC50) in assay [7] (Homo sapiens, PSN1, 3 h) is 798 nM.
For `C=C1CN2CCC[C@]2(COc2nc(N3CC4CCC(C3)N4)c3cc(Cl)c(-c4ccc(F)c5sc(N)c(C#N)c45)c(F)c3n2)C1` [Example 181, (S)-4-(4-((1R,5S)-3,8-diazabicyclo[3.2.1]octan-3-yl)-6-chloro-8-fluoro-2-(((R)-2-methylenetetrahydro-1H-pyrrolizin-7a(5H)-yl)methoxy)quinazolin-7-yl)-2-amino-7-fluorobenzo[b]thiophene-3-carbonitrile], the IC50 is 950 nM in assay [1]; 8500 nM in assay [2]; 8030 nM in assay [3]; more than 10000 nM in assay [4]; 9660 nM in assay [5]; 4560 nM in assay [6]. In addition, in assay [7], the IC50 came to 5260 nM.
On to `CN(C)C(=O)n1cc2c(n1)CCCN(c1nc(OC[C@@]34CCCN3C[C@H](F)C4)nc3c(F)c(-c4ccc(F)c5sc(N)c(C#N)c45)c(Cl)cc13)C2` [Example 185, 5-((R)-7-(2-amino-3-cyano-7-fluorobenzo[b]thiophen-4-yl)-6-chloro-8-fluoro-2-(((2R,7aS)-2-fluorotetrahydro-1H-pyrrolizin-7a(5H)-yl)methoxy)quinazolin-4-yl)-N,N-dimethyl-5,6,7,8-tetrahydropyrazolo[4,3-c]azepine-2(4H)-carboxamide], for which the IC50 is 2 nM in assay [1]; 3 nM in assay [2]; 17 nM in assay [3]; 12 nM in assay [4]; 9 nM in assay [5]; 1 nM in assay [6]. The IC50 in assay [7] turned out to be 1800 nM.
On to `N#Cc1c(N)sc2c(F)ccc(-c3c(Cl)cc4c(NCCO)nc(OC[C@@]56CCCN5C[C@H](F)C6)nc4c3F)c12` [Example 205, 2-amino-4-(6-chloro-8-fluoro-2-(((2R,7aS)-2-fluorotetrahydro-1H-pyrrolizin-7a(5H)-yl)methoxy)-4-((2-hydroxyethyl)amino)quinazolin-7-yl)-7-fluorobenzo[b]thiophene-3-carbonitrile], for which the IC50 amounted to 1740 nM in assay [1] (Homo sapiens, ASPC1, 3 h); 554 nM in assay [2] (Homo sapiens, NCI-H727, 3 h); 985 nM in assay [3] (Homo sapiens, HCT-116, 3 h); 574 nM in assay [4] (Homo sapiens, A549, 3 h); 690 nM in assay [5] (Homo sapiens, NCI-H460, 3 h); 71 nM in assay [6] (Homo sapiens, NCI-H358, 3 h). Moreover, in assay [7] (Homo sapiens, PSN1, 3 h), the half-maximal inhibitory concentration (IC50) was 7120 nM.
Turning to `C=C1CN2CCC[C@@]2(COc2nc(N3CC4CCC(C3)N4)c3cc(Cl)c(-c4ccc(F)c5sc(N)c(C#N)c45)c(F)c3n2)C1` [Example 184, (R)-4-(4-((1R,5S)-3,8-diazabicyclo[3.2.1]octan-3-yl)-6-chloro-8-fluoro-2-(((S)-2-methylenetetrahydro-1H-pyrrolizin-7a(5H)-yl)methoxy)quinazolin-7-yl)-2-amino-7-fluorobenzo[b]thiophene-3-carbonitrile], the IC50 in assay [1] stood at 1 nM; in assay [2], 610 nM; in assay [3], 39 nM; in assay [4] it was 160 nM; in assay [5], 82 nM; in assay [6], 40 nM. In addition, the IC50 in assay [7] came out at 701 nM.
Turning to `N#Cc1c(N)sc2c(F)ccc(-c3c(Cl)cc4c(N5C[C@@H]6C(=O)NC(=O)[C@@H]6C5)nc(OC[C@@]56CCCN5C[C@H](F)C6)nc4c3F)c12` [Example 200, 2-amino-4-(6-chloro-4-((3aR,6aS)-4,6-dioxohexahydropyrrolo[3,4-c]pyrrol-2(1H)-yl)-8-fluoro-2-(((2R,7aS)-2-fluorotetrahydro-1H-pyrrolizin-7a(5H)-yl)methoxy)quinazolin-7-yl)-7-fluorobenzo[b]thiophene-3-carbonitrile], the IC50 in assay [1] (Homo sapiens, ASPC1, 3 h) is 2740 nM; in assay [2] (Homo sapiens, NCI-H727, 3 h), 4730 nM; in assay [3] (Homo sapiens, HCT-116, 3 h), 4560 nM; in assay [4] (Homo sapiens, A549, 3 h), more than 10000 nM; in assay [5] (Homo sapiens, NCI-H460, 3 h), 2760 nM; in assay [6] (Homo sapiens, NCI-H358, 3 h) it was 1680 nM.
Turning to `CCc1c(F)ccc2cc(O)cc(-c3c(F)cc4c(N5CCCn6nc(C(=O)N(C)C)c(Cl)c6C5)nc(OC[C@@]56CCCN5C[C@H](F)C6)nc4c3F)c12` [Example 78, 3-chloro-5-(7-(8-ethyl-7-fluoro-3-hydroxynaphthalen-1-yl)-6,8-difluoro-2-(((2R,7aS)-2-fluorohexahydro-1H-pyrrolizin-7a-yl)methoxy)quinazolin-4-yl)-N,N-dimethyl-5,6,7,8-tetrahydro-4H-pyrazolo[1,5-a][1,4]diazepine-2-carboxamide], the inhibition at 0.1 µM was determined as 98% in assay [1] (Homo sapiens, ASPC1, single point at 100 nM); 75% in assay [2] (Homo sapiens, NCI-H727, single point at 100 nM); 75% in assay [3] (Homo sapiens, HCT-116, HCT116 cells, single point at 100 nM); 94% in assay [4] (Homo sapiens, A549, A549 cells, single point at 100 nM); 81% in assay [5] (Homo sapiens, NCI-H460, H460 cells, single point at 100 nM); 96% in assay [6] (Homo sapiens, NCI-H358, H358 cells, single point at 100 nM).
Take `CN(C)C(=O)c1cc2n(n1)CCCN(c1nc(OC[C@@]34CCCN3C/C(=C\F)C4)nc3c(F)c(-c4ccc(F)c5sc(N)c(C#N)c45)c(Cl)cc13)C2` (atropisomer, axis not shown) [Example 195, 5-((R)-7-(2-amino-3-cyano-7-fluorobenzo[b]thiophen-4-yl)-6-chloro-8-fluoro-2-(((S,Z)-2-(fluoromethylene)tetrahydro-1H-pyrrolizin-7a(5H)-yl)methoxy)quinazolin-4-yl)-N,N-dimethyl-5,6,7,8-tetrahydro-4H-pyrazolo[1,5-a][1,4]diazepine-2-carboxamide]: the IC50 in assay [2] was determined as 2 nM; in assay [3] it was 6 nM; in assay [4] it was 2 nM; in assay [5], 2 nM; in assay [6] it was 1 nM; in assay [7] (Homo sapiens, PSN1, 3 h), 115 nM.
